This is an account of results in PMC7304060, “Broad Spectrum Deubiquitinase Inhibition Induces Both Apoptosis and Ferroptosis in Cancer Cells” (Frontiers in Oncology, 2020).

Peptide text beside a SMILES is read from it.

For the experiment, the target named is T1, 20S proteasome (chymotrypsin-like peptidase) (Homo sapiens, UniProt P28074).
T1 construct: gene PSMB5; purified human 20S proteasome; chymotrypsin-like site (beta5, with beta6 contact)
T1 sequence (P28074 60-263): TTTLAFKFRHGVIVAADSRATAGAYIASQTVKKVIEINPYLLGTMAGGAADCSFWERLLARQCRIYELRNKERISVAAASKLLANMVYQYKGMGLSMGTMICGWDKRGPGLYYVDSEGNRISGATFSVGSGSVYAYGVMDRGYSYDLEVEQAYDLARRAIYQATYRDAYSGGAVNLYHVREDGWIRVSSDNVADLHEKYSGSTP
T1 sequence (P20618 29-241 partner): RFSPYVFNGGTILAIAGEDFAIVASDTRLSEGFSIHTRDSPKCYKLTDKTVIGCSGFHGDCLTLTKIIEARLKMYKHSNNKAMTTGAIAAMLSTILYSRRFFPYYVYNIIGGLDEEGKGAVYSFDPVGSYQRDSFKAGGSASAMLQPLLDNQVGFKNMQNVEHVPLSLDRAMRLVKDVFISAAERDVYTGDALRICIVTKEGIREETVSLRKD
The experiment in a line: fluorogenic peptidase assay. The experiment is classed as biochemical. To be noted: 37 °C; chymotrypsin-like site.

In the case of `Cc1cc(=O)oc2cc(NC(=O)[C@H](Cc3ccc(O)cc3)NC(=O)[C@@H](NC(=O)[C@H](CC(C)C)NC(=O)[C@H](CC(C)C)NC(=O)CCC(=O)O)C(C)C)ccc12` [Suc-LLVY-AMC, Suc-Leu-Leu-Val-Tyr-aminomethylcoumarin] (HELM PEPTIDE1{[O=C(O)CCC(=O)[*:2]].L.L.V.Y.[Cc1cc(=O)oc2cc(N[*:1])ccc12]}$$$$V2.0), the fluorogenic peptidase assay result is “Chymotrypsin-like activity of the proteasome was assessed with fluorogenic Suc-LLVY-AMC substrate”.
